Reference: the supplement of paper PMC11451515

Tested on: NOMO1
Experiment: cell viability relative to DMSO control; higher = less cytotoxic
Conditions: 48 h
Summary of the method: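 Leukemia cells (NOMO1 or SEM, 500 cells/well; P12-Ichikawa, 1000 cells/well) were seeded in 5 μl in 1536-well plates after at least four passages of adaptation to each medium. They received library compounds in DMSO by pin dosing, 11 threefold points from 47 μM to 0.79 nM. Luminescence with CellTiter-Glo One was read after 48 h at 37°C. Viability is stated per plate relative to DMSO wells, with cell-free wells as background.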

[1] = RPMI 5 mM glucose + 10% FBS, 0.000781 µM
[2] = RPMI 5 mM glucose + 10% FBS, 0.00234 µM
[3] = RPMI 5 mM glucose + 10% FBS, 0.00702 µM
[4] = RPMI 5 mM glucose + 10% FBS, 0.0211 µM
[5] = RPMI 5 mM glucose + 10% FBS, 0.0632 µM
[6] = RPMI 5 mM glucose + 10% FBS, 0.19 µM
[7] = RPMI 5 mM glucose + 10% FBS, 0.569 µM
[8] = RPMI 5 mM glucose + 10% FBS, 1.71 µM
[9] = RPMI 5 mM glucose + 10% FBS, 5.12 µM
[10] = RPMI 5 mM glucose + 10% FBS, 15.4 µM
[11] = RPMI 5 mM glucose + 10% FBS, 46.1 µM
[12] = RPMI 5 mM glucose + 10% dialyzed FBS, 0.000781 µM
[13] = RPMI 5 mM glucose + 10% dialyzed FBS, 0.00234 µM
[14] = RPMI 5 mM glucose + 10% dialyzed FBS, 0.00702 µM
[15] = RPMI 5 mM glucose + 10% dialyzed FBS, 0.0211 µM
[16] = RPMI 5 mM glucose + 10% dialyzed FBS, 0.0632 µM
[17] = RPMI 5 mM glucose + 10% dialyzed FBS, 0.19 µM
[18] = RPMI 5 mM glucose + 10% dialyzed FBS, 0.569 µM
[19] = RPMI 5 mM glucose + 10% dialyzed FBS, 1.71 µM
[20] = RPMI 5 mM glucose + 10% dialyzed FBS, 5.12 µM
[21] = RPMI 5 mM glucose + 10% dialyzed FBS, 15.4 µM
[22] = RPMI 5 mM glucose + 10% dialyzed FBS, 46.1 µM
[23] = HPLM + 10% dialyzed FBS, 0.000781 µM
[24] = HPLM + 10% dialyzed FBS, 0.00234 µM
[25] = HPLM + 10% dialyzed FBS, 0.00702 µM
[26] = HPLM + 10% dialyzed FBS, 0.0211 µM
[27] = HPLM + 10% dialyzed FBS, 0.0632 µM
[28] = HPLM + 10% dialyzed FBS, 0.19 µM
[29] = HPLM + 10% dialyzed FBS, 0.569 µM
[30] = HPLM + 10% dialyzed FBS, 1.71 µM
[31] = HPLM + 10% dialyzed FBS, 5.12 µM
[32] = HPLM + 10% dialyzed FBS, 15.4 µM
[33] = HPLM + 10% dialyzed FBS, 46.1 µM

Compound	cell viability [1]	cell viability [2]	cell viability [3]	cell viability [4]	cell viability [5]	cell viability [6]	cell viability [7]	cell viability [8]	cell viability [9]	cell viability [10]	cell viability [11]	cell viability [12]	cell viability [13]	cell viability [14]	cell viability [15]	cell viability [16]	cell viability [17]	cell viability [18]	cell viability [19]	cell viability [20]	cell viability [21]	cell viability [22]	cell viability [23]	cell viability [24]	cell viability [25]	cell viability [26]	cell viability [27]	cell viability [28]	cell viability [29]	cell viability [30]	cell viability [31]	cell viability [32]	cell viability [33]
COc1ccc(Cn2ccc3ccc(C(=O)NO)cc32)cc1	107%	121%	115%	128%	124%	123%	130%	137%	124%	130%	128%	–	–	–	–	–	–	–	–	–	–	–	–	–	–	–	–	–	–	–	–	–	–
CN1[C@@H]2CC(O)C[C@H]1[C@@H]1O[C@@H]12 (stereo partly drawn)	111%	125%	121%	121%	113%	118%	103%	113%	121%	111%	6.78%	–	–	–	–	–	–	–	–	–	–	–	–	–	–	–	–	–	–	–	–	–	–
c1ccc2c(Oc3nc(Nc4ccc(N5CCOCC5)cc4)c4ncn(C5CCCCC5)c4n3)cccc2c1	113%	117%	129%	127%	126%	133%	131%	149%	132%	153%	136%	102%	121%	126%	143%	125%	146%	139%	127%	123%	124%	135%	–	–	–	–	–	–	–	–	–	–	–
COC1=CC=C2C(=CC=NC2=C1)OC3=CC=C(NC(=O)\C4=C(C)\N(CC(C)(C)O)N(C4=O)C5=CC=CC=C5)C=C3F	–	–	–	–	–	–	–	–	–	–	–	–	–	–	–	–	–	–	–	–	–	–	124%	116%	104%	115%	132%	120%	108%	107%	125%	110%	105%
O=P(O)(O)C(O)(Cc1cccnc1)P(=O)(O)[O][Na] (stereo not drawn)	85.3%	93.6%	90.8%	22.8%	90.7%	85%	93%	84.7%	83.7%	85.9%	86.6%	76.4%	80.2%	82.8%	25.2%	88.2%	93.5%	103%	92.6%	97.6%	93.6%	106%	71.5%	102%	98.3%	33%	107%	97.2%	119%	116%	116%	102%	106%
CN(C(=O)c1ccc(F)cc1C(F)(F)F)C1CCN(c2nnc(-c3ccnn3C)c3ccccc23)CC1	66%	71.6%	69.4%	83.3%	82.3%	84.8%	11.9%	82.8%	79.6%	76.6%	75%	76%	85.4%	79.9%	86.8%	77.6%	86.3%	77.1%	80.7%	82.2%	78%	41.9%	61.1%	79%	87.1%	83.2%	102%	97.8%	83.4%	95.2%	85.2%	88.8%	77.9%
C=C1C[C@@]2(O)O[C@@]3(C[C@H]2C(C)C)[C@@H](C)CC[C@@H]13	108%	114%	122%	126%	136%	119%	121%	122%	130%	119%	135%	114%	125%	118%	109%	117%	122%	98.1%	102%	121%	102%	124%	120%	94.8%	122%	133%	121%	134%	114%	117%	134%	132%	111%
Cn1cc(-c2ccc3ncc(Cc4ccc5ncccc5c4)n3n2)cn1	99.2%	108%	102%	96.4%	115%	110%	118%	111%	102%	97.6%	102%	84.9%	110%	97.4%	112%	105%	105%	114%	110%	99%	94.4%	99.7%	102%	96.5%	99.8%	110%	100%	102%	111%	120%	110%	105%	91.7%
C[C@H]1CCC/C=C/C2C[C@H](O)C[C@H]2[C@H](O)/C=C/C(=O)O1 (stereo partly drawn)	5.4%	7%	5.78%	5.27%	5.07%	4.51%	4.27%	3.98%	1.66%	1.88%	3.46%	79.5%	6.02%	10%	5.74%	4.22%	4.83%	4.29%	3.43%	2.6%	2.61%	2.61%	4.93%	15.8%	26.7%	7.07%	5.05%	5.57%	5.16%	4.43%	3.51%	3.39%	2.94%
C[C@H]1[C@@H](CC(C[C@H]2O[C@@H]3O[C@]4(C)CC[C@H]5[C@H](C)CC[C@@H]([C@H]2C)[C@@]35OO4)C[S+](=O)([O-])c2ccc(COC(=O)N(C)C)cc2)O[C@@H]2O[C@]3(C)CC[C@H]4[C@H](C)CC[C@@H]1[C@@]24OO3	114%	119%	113%	98.9%	103%	101%	82.5%	28%	21.8%	17%	15.1%	109%	118%	100%	110%	108%	91.9%	32.3%	22.5%	24%	18.8%	14.8%	122%	123%	116%	120%	127%	110%	44.8%	22.5%	22.3%	17.9%	10.8%
